Test results reported in US11779565B2, “Small organic molecules for use in the treatment of neuroinflammatory disorders” (THE MEDICAL RESEARCH, INFRASTRUCTURE AND HEALTH SERVICES …, priority 2017, dated 2023).

Assays:
P19 cells = experiment: In vitro differentiation assay of P19 cells (MAP-2 positive neurons); format: cell-based, murine; conditions: RA stimulation alone (5×10^−7 M), day 8
Protocol: P19 cells were grown in a-minimum essential medium (aMEM) (Gibco) containing 7.5% calf serum, 2.5% fetal calf serum, and 0.4 μl/ml penicillin—streptomycin (Gibco), at 37° C., 5% CO2. Cells were replenished with fresh medium every 48 h.
The medium, including RA, BMP supplements and SMs, was replenished after 48 h. After 4 days, aggregates which formed during RA treatment were dispersed enzymatically (0.05% v/v trypsin-0.02% v/v EDTA) and mechanically and plated in tissue culture grade dishes. At this stage, cells were cultured in RA-, BMP- and SM-free medium, which was refreshed every 48 h. MAP-2 positive neurons were examined at day 8 (i.e., day 4 post-RA treatment) by immunofluorescence. Briefly, at day 7, cells were re-cultured in 24 well-plates with cover slips at a final concentration of 5×10^4 cells/well. On day 8, cells were washed with PBS, fixed with PFA 4% for 15 min, permeabilized with 0.5% Triton Tx, blocked with 10% FCS, 0.1% BSA and 0.05% Tween for 30 min, and stained with MAP2 rabbit mAb (1:100, D5G1, Cell Signaling) for 1 hr. The second antibody step was performed by labeling with Alexa Fluor® 488-conjugated IgG antibody to rabbit for 1 h (1:1000; Molecular Probes USA).
Next, the effect of the small molecules on neurogenesis in a P19 differentiation model was measured. […] Neuronal differentiation is marked by the expression of the neuronal marker MAP-2, while the addition of BMP-2 reduces the levels of this marker. Addition of the murine anti-BMP-2/4 monoclonal antibody reverses the effect of BMP-2 and induces acquisition of neuronal phenotype. Thus, the effect of SM1, SM7 and SM9 on the expression of the neuronal marker MAP-2 in P19 cells was examined in the presence of RA and BMP-2. Three concentrations of the molecules were tested: 0.625 μM, 1.25 μM and 2.5 μM.

BMP-2 = target: T1, BMP-2 (Homo sapiens, UniProt P12643); experiment: ATDC5 cell based HTS bioassay: ALP production stimulated by BMP-2 and heparin; design: species or system mouse; conditions: inhibition of BMP-2-stimulated ALP in ATDC5 cells, 48 hours, tested at 0.62-10 μM
T1 construct: purchased R&D Systems
T1 sequence (P12643 283-396): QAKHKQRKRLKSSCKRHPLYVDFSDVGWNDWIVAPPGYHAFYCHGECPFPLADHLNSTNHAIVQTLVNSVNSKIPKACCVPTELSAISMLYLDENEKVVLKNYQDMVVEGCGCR
Protocol: Poly-L-lysine (Sigma-Aldrich) was added to 384-well plates and was removed after 30 min of incubation at RT. An assay medium containing DMEM/F12, 2% FBS, 100 units/ml penicillin, […] streptomycin (Biological industries) was added to each well. […] ATDC5 cells (Sigma-Aldrich) were harvested, re-suspended in assay medium and added to a final concentration of 2000 cells/well. Finally, heparin (Sigma-Aldrich) was added to a final concentration of 2 μg/ml. The cells were incubated for 48 hours at 37° C. with 5% CO2 in a humidified chamber in the presence or absence of potential small molecule inhibitors of BPM-2. After incubation, ALP levels and cell viability were determined using a completely automated protocol. Cells were washed with PBS, lysed using a lysis buffer containing 0.2% Triton X-100 in PBS supplemented with a protease inhibitor cocktail (Sigma-Aldrich) and incubated for 25 min at RT. ALP level was then determined by addition of CDP-Star® chemiluminescent substrate (Sigma-Aldrich) and measurement of luminescence after incubation for 25 min at RT in the dark. Cell viability was finally determined by addition of CellTiter-Glo® reagent (Biological Industries) and luminescence measurement after 10 min of incubation.
An ATDC5 cell based assay for assessing structure-function relationship of BMP-2 and BMP receptor IA was originally described in Keller et al (Nature Structural & Molecular Biology 2004 11, 481-488). In order to screen a large volume of potential therapeutic agents the ATDC5 cell based bioassay for detecting BMP inhibition was adapted for use in high throughput screening. The bioassay is based on the stimulation of alkaline phosphatase (ALP) production in mouse ATDC5 cells by administration of BMP-2 and heparin, and measurement of ALP levels in the presence of the potential inhibitors. […] This was achieved by using CellTiter-Glo® Luminescent Cell Viability Assay for assessing the cells' viability after the luminescent signal by CDP-Star® has faded. The simultaneous assessment of both ALP production and cells' viability was necessary since potentially toxic tested small molecules may lead to reduced ALP levels by cellular cytotoxicity rather than by interference with BMP-2 signaling. […] Particulars of the bioassay are detailed in the Experimental procedures section above.
A library of small molecules (SM) was screened using the High Throughput Screening bioassay described above. About 7600 SMs were screened, from the Maybridge library, which consists of organic “drug-like” compounds, using the pre-plated HitFinder™ Collection. […] The SM were tested at various concentrations, i.e. at 0.62 μM, 1.25 μM, 2.5 μM, 5 μM and 10 μM.

| IC50 (BMP-2) [µM] | Structure (SMILES) | MAP-2+ cells (P19 cells) [%] |
| --- | --- | --- |
| 8.5 | c1ccc(C2=NNC(c3ccccc3)=NN2)cc1 [SM2, 1,4-Dihydro-3,6-diphenyl-1,2,4,5-tetrazine] |  |
| 2.8 | C/C(=N\NC(=S)NC(C)(C)C)c1ccc(Oc2c(Cl)cncc2Cl)cc1 [SM8, 1-tert-butyl-3-[E-1-(4-(3,5-dichloropyridin-4-yl)oxyphenyl]ethylideneamino)thiourea] |  |

Continued, compound first:

| Structure (SMILES) | IC50 (BMP-2) [µM] | MAP-2+ cells (P19 cells) [%] |
| --- | --- | --- |
| CC1=C(/C=C/C(C)=C/C=C/C(C)=C/C(=O)O)C(C)(C)CCC1 [RA, all-trans-retinoic acid, reference compound] |  | 73.8±6.5 |
| CCOC(=O)c1c(NC(=O)c2ccc([N+](=O)[O-])o2)nc(SC)n1Cc1cccs1 [SM3] | 2.6 |  |
| O=C1c2cccc3cc([N+](=O)[O-])cc(c23)C(=O)N1c1ccc(S(=O)(=O)Nc2ccc(C(F)(F)F)cc2)cc1 [SM4, 4-(5-nitro-1,3-dioxobenzo(de)isoquinolin-2-yl)-N-[4-(trifluoromethyl)phenyl]benzenesulfonamide] | 10 |  |
| CC(=O)NC(=O)CCSc1ccccc1C(=O)NC(C)=O [SM5, N1-acetyl-2-([3-(acetylamino)-3-oxopropyl]thio)benzamide] | 3.8 |  |
